Values of other authors in Sander's compilation of Henry's law constants (doi:10.1021/je0497045).

Experiment: Henry solubility constant Hcp at 298.15 K (mol/(m3 Pa))
Settings: reference: Plyasunova et al. (2004); cited value

SMILES | Henry solubility constant Hcp
S=C=S [carbon disulfide] | 0.00055
CCCS [1-propanethiol] | 0.0017
CCSSCC [diethyl disulfide] | 0.004
CCC(C)S (centres undefined) [2-butanethiol] | 0.0013
CC(C)SC(C)C [di-(2-propyl)-sulfide] | 0.003
CCSCC [diethyl sulfide] | 0.0047
CCCSC [methyl propyl sulfide] | 0.0043
CS [methanethiol] | 0.0028
CSC [dimethyl sulfide] | 0.0053
CC(C)(C)S [2-methyl-2-propanethiol] | 0.00045
CSSSC [2,3,4-trithiapentane] | 0.012

Continued, values first:

Henry solubility constant Hcp | SMILES
0.0023 | CCS [ethanethiol]
0.0033 | CCCSCCC [dipropyl sulfide]
0.00052 | CCCCCCS [1-hexanethiol]
0.0022 | CCCSSCCC [dipropyl disulfide]
0.00087 | CCCCCS [1-pentanethiol]
0.00042 | CCCCCCCS [1-heptanethiol]
0.0014 | CCCCS [1-butanethiol]
0.00095 | CC(C)CCS [3-methyl-1-butanethiol]
